Measured values published in patent publication US6274715A, “Tricyclic erythromycin derivatives” (priority 1997, dated 2001).
In brackets after ≈: the same amount, converted by molar mass.

How the values were obtained:
Assay type in all cases: cell-based
[1] = tested on: ACINETOBACTER CALCOACETICUS CMX 669; experiment: In vitro antibacterial activity, MIC, BHI agar dilution; details: A. calcoaceticus CMX 669, unit assumed
[2] = tested on: CANDIDA ALBICANS CCH 442; experiment: as above; details: C. albicans CCH 442, unit assumed
[3] = tested on: H. Influenza Dill AMP R; experiment: In vitro antibacterial activity against H. Influenza Dill AMP R, MIC; details: separate assay, unit assumed
In short: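 Agar dilution in Brain Heart Infusion agar, twelve successive compound dilutions, inoculated by Steers replicator with 1:100 (1:10 for slow growers) culture dilutions. Incubation 35-37° C. for 20 to 24 hours; MIC is lowest concentration giving no growth, slight haze or sparse colonies versus drug-free control.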

[4] = tested on: ESCHERICHIA COLI SS; experiment: In vitro antibacterial activity, MIC, BHI agar dilution; details: E. coli SS, unit assumed
[5] = tested on: STREPTOCOCCUS PYOGENES 930; experiment: as above; details: S. pyogenes 930, unit assumed
[6] = tested on: PSEUDOMONAS AERUGINOSA K799/WT; experiment: as above; details: P. aeruginosa K799/WT, unit assumed
[7] = tested on: MYCOBACTERIUM SMEGMATIS ATCC 114; experiment: as above; details: M. smegmatis ATCC 114, unit assumed
[8] = tested on: STAPHYLOCOCCUS AUREUS CMX 553; experiment: as above; details: S. aureus CMX 553, unit assumed
[9] = tested on: ESCHERICHIA COLI KNK 437; details: E. coli KNK 437; BHI agar; unit assumed
[10] = tested on: STAPHYLOCOCCUS AUREUS ATCC 6538P; experiment: In vitro antibacterial activity, MIC, BHI agar dilution; details: S. aureus ATCC 6538P, 35-37° C., 20 to 24 hours, unit assumed
[11] = tested on: PSEUDOMONAS AERUGINOSA DPHD-5263; experiment: as above; details: P. aeruginosa DPHD-5263, unit assumed
[12] = tested on: M[…] ATCC 4698; experiment: as above; details: M. luteus ATCC 4698, unit assumed
In short: (§1)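 Twelve successive aqueous dilutions of compound in Brain Heart Infusion agar were inoculated with 1:100 culture dilutions (1:10 for slow growers such as Micrococcus, Streptococcus) by Steers replicator and incubated at 35-37° C for 20 to 24 hours. MIC was the lowest concentration giving no growth, slight haze or sparse colonies versus drug-free control.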

[13] = tested on: EN[…] ATCC 8043; experiment: as above; details: E. faecium ATCC 8043, unit assumed
In short: as §1

[14] = tested on: STR[…] 508; experiment: as above; details: S. agalactiae CMX 508, unit assumed
In short: as §1

[15] = tested on: M[…] ATCC 9341; experiment: as above; details: M. luteus ATCC 9341, unit assumed
In short: as §1

[16] = tested on: STAPHYLOCOCCUS AUREUS CMX 642A; experiment: as above; details: S. aureus CMX 642A, unit assumed
[17] = tested on: PROVIDENCIA STUARTII CMX 640; details: P. stuartii CMX 640; BHI agar; unit assumed
[18] = tested on: ENTEROBACTER AEROGENES ATCC 13048; experiment: In vitro antibacterial activity, MIC, BHI agar dilution; details: E. aerogenes ATCC 13048, unit assumed
[19] = tested on: STAPHYLOCOCCUS AUREUS 1775; experiment: as above; details: S. aureus 1775, unit assumed
[20] = tested on: STREPTOCOCCUS PYOGENES PIU 2548; experiment: as above; details: S. pyogenes PIU 2548, unit assumed
[21] = tested on: PSEUDOMONAS CEPACIA 296I; experiment: as above; details: P. cepacia 296I, unit assumed
[22] = tested on: STAPHYLOCOCCUS EPIDERMIDIS 3519; details: S. epidermidis 3519; BHI agar; unit assumed
[23] = tested on: STREPTOCOCCUS PYOGENES EES61; experiment: In vitro antibacterial activity, MIC, BHI agar dilution; details: S. pyogenes EES61, unit assumed
[24] = tested on: ESCHERICHIA COLI DC-2; experiment: as above; details: E. coli DC-2, unit assumed
[25] = tested on: PSEUDOMONAS AERUGINOSA BMH10; experiment: as above; details: P. aeruginosa BMH10, unit assumed
[26] = tested on: KLEBSIELLA PNEUMONIAE ATCC 8045; experiment: as above; details: K. pneumoniae ATCC 8045, unit assumed
[27] = tested on: ESCHERICHIA COLI JUHL; details: E. coli JUHL; BHI agar; unit assumed
[28] = tested on: STAPHYLOCOCCUS AUREUS A5177; experiment: In vitro antibacterial activity, MIC, BHI agar dilution; details: S. aureus A5177, unit assumed
[29] = tested on: PSEUDOMONAS AERUGINOSA 5007; experiment: as above; details: P. aeruginosa 5007, unit assumed
[30] = tested on: STAPHYLOCOCCUS AUREUS A-5278; experiment: as above; details: S. aureus A-5278, unit assumed
[31] = tested on: STAPHYLOCOCCUS AUREUS NCTC10649M; experiment: as above; details: S. aureus NCTC10649M, unit assumed
[32] = tested on: PSEUDOMONAS AERUGINOSA K799/61; experiment: as above; details: P. aeruginosa K799/61, unit assumed
[33] = tested on: ESCHERICHIA COLI H560; experiment: as above; details: E. coli H560, unit assumed
[34] = tested on: PSEUDOMONAS AERUGINOSA DPHD-2862; experiment: as above; details: P. aeruginosa DPHD-2862, unit assumed
[35] = tested on: STREPTOCOCCUS BOVIS A-5169; experiment: as above; details: S. bovis A-5169, unit assumed

Row | Structure (SMILES) | MIC [1] [µg/mL] | MIC [2] [µg/mL] | MIC [3] [µg/mL] | MIC [4] [µg/mL] | MIC [5] [µg/mL] | MIC [6] [µg/mL] | MIC [7] [µg/mL] | MIC [8] [µg/mL] | MIC [9] [µg/mL] | MIC [10] [µg/mL] | MIC [11] [µg/mL] | MIC [12] [µg/mL] | MIC [13] [µg/mL] | MIC [14] [µg/mL] | MIC [15] [µg/mL] | MIC [16] [µg/mL] | MIC [17] [µg/mL] | MIC [18] [µg/mL] | MIC [19] [µg/mL] | MIC [20] [µg/mL] | other results
1 | CC[C@H]1OC(=O)[C@H](C)C(=O)[C@H](C)[C@@H](O[C@@H]2O[C@H](C)C[C@H](N(C)C)[C@H]2O)[C@](C)(OC)C[C@@H](C)C2=N[C@H](COCc3cc(C)c4ccccc4n3)CN3C(=O)O[C@@]1(C)[C@H]3[C@H]2C [Example 83] | 100 (≈ 122 µM) | > 100 | 16 (≈ 19.4 µM) | 1.56 (≈ 1.9 µM) | 100 (≈ 122 µM) | > 100 | 0.39 (≈ 0.474 µM) | 0.2 (≈ 0.243 µM) | > 100 | 0.2 (≈ 0.243 µM) | > 100 | 0.39 (≈ 0.474 µM) | 0.05 (≈ 0.0608 µM) | 0.01 (≈ 0.0122 µM) | 0.05 (≈ 0.0608 µM) | 0.2 (≈ 0.243 µM) | > 100 | > 100 | > 100 | 0.39 (≈ 0.474 µM) | MIC [21]: 50 µg/mL (≈ 60.8 µM); MIC [22]: 0.39 µg/mL (≈ 0.474 µM); MIC [23]: 0.01 µg/mL (≈ 0.0122 µM); MIC [24]: > 100 µg/mL; MIC [25]: > 100 µg/mL; MIC [26]: > 100 µg/mL; MIC [27]: > 100 µg/mL; MIC [28]: 0.2 µg/mL (≈ 0.243 µM); MIC [29]: > 100 µg/mL; MIC [30]: > 100 µg/mL; MIC [31]: 0.2 µg/mL (≈ 0.243 µM); MIC [32]: 6.2 µg/mL (≈ 7.53 µM); MIC [33]: > 100 µg/mL; MIC [34]: > 100 µg/mL; MIC [35]: 0.02 µg/mL (≈ 0.0243 µM)
2 | CC[C@H]1OC(=O)[C@H](C)C(=O)[C@H](C)[C@@H](O[C@@H]2O[C@H](C)C[C@H](N(C)C)[C@H]2O)[C@](C)(OC)C[C@@H](C)C2=N[C@H](CCOCc3ccccc3)CN3C(=O)O[C@@]1(C)[C@H]3[C@H]2C [Example 92] | > 100 | > 100 | 32 (≈ 41.5 µM) | 1.56 (≈ 2.02 µM) | 100 (≈ 130 µM) | > 100 | 1.56 (≈ 2.02 µM) | 0.39 (≈ 0.505 µM) | > 100 | 0.39 (≈ 0.505 µM) | > 100 | 0.39 (≈ 0.505 µM) | 0.1 (≈ 0.13 µM) | 0.05 (≈ 0.0648 µM) | 0.05 (≈ 0.0648 µM) | 0.39 (≈ 0.505 µM) | > 100 | > 100 | > 100 | 0.39 (≈ 0.505 µM) | MIC [21]: > 100 µg/mL; MIC [22]: 0.39 µg/mL (≈ 0.505 µM); MIC [23]: 0.05 µg/mL (≈ 0.0648 µM); MIC [24]: > 100 µg/mL; MIC [25]: > 100 µg/mL; MIC [26]: > 100 µg/mL; MIC [27]: > 100 µg/mL; MIC [28]: 0.2 µg/mL (≈ 0.259 µM); MIC [29]: > 100 µg/mL; MIC [30]: > 100 µg/mL; MIC [31]: 0.39 µg/mL (≈ 0.505 µM); MIC [32]: 6.2 µg/mL (≈ 8.03 µM); MIC [33]: > 100 µg/mL; MIC [34]: > 100 µg/mL; MIC [35]: 0.05 µg/mL (≈ 0.0648 µM)
3 | CCC1OC(=O)C(C)C(=O)C(C)C(OC2OC(C)CC(N(C)C)C2O)C(C)(OC)CC(C)C2=NC(COCSC)CN3C(=O)OC1(C)C3C2C (stereo not drawn) [Example 99] | 100 (≈ 137 µM) | > 100 | 32 (≈ 44 µM) | 0.78 (≈ 1.07 µM) | > 100 | > 100 | 3.1 (≈ 4.26 µM) | 0.39 (≈ 0.536 µM) | > 100 | 0.39 (≈ 0.536 µM) | > 100 | 0.39 (≈ 0.536 µM) | 0.1 (≈ 0.137 µM) | 0.05 (≈ 0.0687 µM) | 0.1 (≈ 0.137 µM) | 0.39 (≈ 0.536 µM) | > 100 | > 100 | > 100 | 0.39 (≈ 0.536 µM) | MIC [21]: > 100 µg/mL; MIC [22]: 0.39 µg/mL (≈ 0.536 µM); MIC [23]: 0.05 µg/mL (≈ 0.0687 µM); MIC [24]: > 100 µg/mL; MIC [25]: > 100 µg/mL; MIC [26]: > 100 µg/mL; MIC [27]: > 100 µg/mL; MIC [28]: 0.39 µg/mL (≈ 0.536 µM); MIC [29]: > 100 µg/mL; MIC [30]: > 100 µg/mL; MIC [31]: 0.39 µg/mL (≈ 0.536 µM); MIC [32]: 6.2 µg/mL (≈ 8.52 µM); MIC [33]: > 100 µg/mL; MIC [34]: > 100 µg/mL; MIC [35]: 0.05 µg/mL (≈ 0.0687 µM)
